# Measured values from US8026258B2, “Aryloxyalkylcarbamate-type derivatives, preparation method thereof and use of same in therapeutics” (Sanofi-Aventis, priority 2004, dated 2011).
# Target: T1, FAAH (Fatty Acid Amide Hydrolase) (Mus musculus, UniProt O08914)
# T1 construct: Membrane homogenates are prepared at the time of use by homogenizing the tissues in a Polytron; from tissue; host or cells: mouse brain (minus the cerebellum), membrane homogenate
# T1 sequence (O08914 1-579): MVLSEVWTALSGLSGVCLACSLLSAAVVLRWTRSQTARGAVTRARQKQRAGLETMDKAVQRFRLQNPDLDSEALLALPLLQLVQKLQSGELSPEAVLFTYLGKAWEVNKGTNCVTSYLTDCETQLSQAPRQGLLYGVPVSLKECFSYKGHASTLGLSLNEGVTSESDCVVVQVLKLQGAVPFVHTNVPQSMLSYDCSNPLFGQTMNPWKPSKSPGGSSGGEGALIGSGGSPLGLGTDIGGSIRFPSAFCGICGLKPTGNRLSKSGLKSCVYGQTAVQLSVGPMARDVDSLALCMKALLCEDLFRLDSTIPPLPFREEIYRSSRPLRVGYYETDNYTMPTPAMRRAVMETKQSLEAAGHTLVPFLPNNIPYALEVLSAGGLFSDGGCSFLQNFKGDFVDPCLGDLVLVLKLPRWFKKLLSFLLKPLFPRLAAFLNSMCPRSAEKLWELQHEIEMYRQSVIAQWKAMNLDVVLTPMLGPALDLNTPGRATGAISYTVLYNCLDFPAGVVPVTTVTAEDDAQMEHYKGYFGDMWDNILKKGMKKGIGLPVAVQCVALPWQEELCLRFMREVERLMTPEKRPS
# Experiment: Radioenzymatic FAAH inhibition assay (hydrolysis of anandamide [ethanolamine 1-3H]) in mouse brain membrane homogenates
# Format: biochemical
# Details: mouse brain membrane homogenate; anandamide 10 μM; 15 minutes at 25° C.; read-out: IC50 (concentration inhibiting by 50% the control enzyme activity of FAAH)
# Description: The compounds of the invention were subjected to pharmacological tests permitting determination of their inhibitory effect on the enzyme FAAH (Fatty Acid Amide Hydrolase).
# Accordingly, mouse brains (minus the cerebellum) are removed and stored at −80° C. Membrane homogenates are prepared at the time of use by homogenizing the tissues in a Polytron in a 10 mM Tris-HCl buffer (pH 8.0) containing 150 mM NaCl and 1 mM EDTA. The enzyme reaction is subsequently conducted in 70 μl of buffer containing bovine serum albumin without fatty acids (1 mg/ml). In succession, the test compounds, at various concentrations, anandamide [ethanolamine 1-^3H] (specific activity: 15-20 Ci/mmol) diluted to 10 μM with cold anandamide, and the membrane preparation (400 μg of frozen tissue per assay) are added. After 15 minutes at 25° C. the enzyme reaction is terminated by adding 140 μl of chloroform/methanol (2:1). The mixture is stirred for 10 minutes and then centrifuged for 15 minutes at 3500 g. An aliquot (30 μl) of the aqueous phase containing the ethanolamine [1-^3H] is counted by liquid scintillation.
row,IC50 [nM],SMILES
1,470,"NC(=O)COC(=O)NCCCCOc1cccc2ccccc12 [Compound 58, 2-amino-2-oxoethyl [4-(1-naphthalenyloxy]butyl]-carbamate]"

# Tested on: male OF1 mice
# Experiment: Analgesia test: PBQ (phenylbenzoquinone)-induced abdominal stretches
# Format: in vivo, mouse
# Details: oral, dose of 1 mg/kg, at 2 hours, PBQ 2 mg/kg i.p.
# Description: The in vivo activity of the compounds of the invention was evaluated in an analgesia test.
# Accordingly, intraperitoneal (i.p.) administration of PBQ (phenylbenzoquinone, 2 mg/kg in a 0.9% sodium chloride solution containing 5% of ethanol) to male OF1 mice weighing 25 to 30 g causes abdominal stretches, on average 30 twists or contractions during the period from 5 to 15 minutes after injection. The test compounds are administered orally in suspension in Tween 80 at 0.5%, 60 minutes or 120 minutes before the administration of PBQ. […] For example, compound 58 of the table reduces by 51% the number of stretches induced by PBQ, at a dose of 1 mg/kg at 2 hours.
row,SMILES,reduction of the number of stretches induced by PBQ [%]
1,"NC(=O)COC(=O)NCCCCOc1cccc2ccccc12 [Compound 58, 2-amino-2-oxoethyl [4-(1-naphthalenyloxy]butyl]-carbamate]",51

# Tested on: not given
# Experiment: not given
# Details: not given
row,melting point [°C],SMILES
1,80 to 82,"NC(=O)COC(=O)NCCCCOc1cccc2ccccc12 [Compound 58, 2-amino-2-oxoethyl [4-(1-naphthalenyloxy]butyl]-carbamate]"
2,179 to 181,"NC(=O)COC(=O)N1CCC(CCOc2ccc3ccncc3c2)CC1 [Compound 183, 2-amino-2-oxoethyl 4-[2-(7-isoquinolinyloxy)ethyl]-1-piperidinecarbamate]"
3,137 to 139,"NC(=O)COC(=O)N1CCC(COc2ccc3cccnc3c2)CC1 [Compound 148, 2-amino-2-oxoethyl 4-[(7-quinolinyloxy)methyl]-1-piperidinecarboxylate]"
4,161 to 163,"NC(=O)COC(=O)N1CCC(COc2cccc3ccccc23)C1 (centres unmarked) [Compound 83, 2-amino-2-oxoethyl 3-[(1-naphthalenyloxy)methyl]-1-pyrrolidinecarboxylate]"
5,147 to 149,"CNC(=O)COC(=O)NCCOc1ccc(Cl)cc1 [Compound 1, 2-(methylamino)-2-oxoethyl{2-[(4-chlorophenyl)-oxy]ethyl}carbamate]"
6,135 to 136,"NC(=O)COC(=O)N1CCC(COc2cccc3ccccc23)CC1 [Compound 137, 2-amino-2-oxoethyl 4-[(1-naphthalenyloxy)methyl]-1-piperidinecarboxylate]"
7,104 to 106,"CNC(=O)COC(=O)N1CCC(CCOc2ccc(-c3ccc(Cl)cc3)cc2)CC1 [Compound 186, 2-(methylamino)-2-oxoethyl 4-{2-[(4′-chloro-4-biphenyl)oxy]ethyl}-1-piperidinecarboxylate]"
8,163 to 165,"CNC(=O)COC(=O)N1CCC(COc2ccc(Br)cc2)CC1 [Compound 120, 2-(methylamino)-2-oxoethyl 4-{[(4-bromophenyl)oxy]-methyl}-1-piperidinecarboxylate]"
9,197 to 199,"CNC(=O)COC(=O)N1CCC(COc2ccc(-c3ccc(C(F)(F)F)cc3)cc2)CC1 [Compound 154, 2-(methylamino)-2-oxoethyl 4-{[(4′-(trifluoromethyl)-4-biphenyl)oxy]methyl}-1-piperidinecarboxylate]"
10,101 to 103,"CNC(=O)COC(=O)N1CCC(CCOc2ccc(Br)cc2)CC1 [Compound 168, 2-(methylamino)-2-oxoethyl 4-{2-[(4-bromophenyl)-oxy]ethyl}-1-piperidinecarboxylate]"
11,117 to 119,"CNC(=O)COC(=O)N1CCC(Oc2ccc(-c3ccc(F)cc3)cc2)CC1 [Compound 85, 2-(methylamino)-2-oxoethyl 4-[(4′-fluoro-4-biphenyl)-oxy]-1-piperidinecarboxylate]"
12,204 to 206,"N#Cc1ccc(OCCNC(=O)OCC(N)=O)cc1 [Compound 11, 2-amino-2-oxoethyl (2-[(4-cyanophenyl)oxy]ethyl)-carbamate]"
